SMILES strings stand for the structures.

The subject of data set [1] is patients with hematopoietic malignancies such as relapsed/refractory acute leukemia. The data set is described as follows: Phase I study, 3-hour intravenous infusion for three consecutive days every two weeks. The following applies: 100, 150, 210, and 280 mg/m^2/daily; ten patients. It is filed as in vivo, human. How it is done:
A phase I pharmacological study to investigate the iv administration of Compound 1 given in a 3-hour intravenous infusion for three consecutive days every two weeks in patients with hematopoietic malignancies such as relapsed/refractory acute leukemia. Ten patients have been enrolled in 4 dose levels (100, 150, 210, and 280 mg/m^2/daily). […] Dose escalation is still proceeding.

A further data set has as its target Aurora kinases (AKs) B (Homo sapiens, UniProt Q96GD4). As to the kind of experiment: Inhibitory potency towards Aurora kinase B. It is filed as biochemical.
The target of a further data set is T1, Aurora kinases (AKs) A (Homo sapiens, UniProt O14965).
T1 sequence (O14965 1-403): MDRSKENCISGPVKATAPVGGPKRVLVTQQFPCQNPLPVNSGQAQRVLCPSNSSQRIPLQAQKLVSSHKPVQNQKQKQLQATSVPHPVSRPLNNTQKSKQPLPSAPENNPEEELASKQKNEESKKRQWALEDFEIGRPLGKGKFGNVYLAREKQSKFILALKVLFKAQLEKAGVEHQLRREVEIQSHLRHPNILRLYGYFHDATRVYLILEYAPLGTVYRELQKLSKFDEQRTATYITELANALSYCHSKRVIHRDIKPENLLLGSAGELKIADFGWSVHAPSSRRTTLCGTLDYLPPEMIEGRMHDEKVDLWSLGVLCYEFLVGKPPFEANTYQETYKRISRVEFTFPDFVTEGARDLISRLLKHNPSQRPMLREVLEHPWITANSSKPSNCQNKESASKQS
As to the kind of experiment: Inhibitory potency towards Aurora kinase A. The data set is classed as biochemical.

The nature of data set [2]: Pharmacokinetics in phase I trial, 24 hours iv infusion once every two weeks. The data set is classed as in vivo, human. The settings on record: patients. How it is done:
(§1) A phase I pharmacological trial was carried out to investigate the iv administration of Compound 1 given in 24 hours infusion once every two weeks in patients with refractory or resistant solid tumours, including lung, colorectal, gastro-oesophageal, cervix, Ewing, renal, head and neck, mesothelioma and cancer of unknown primary.
Neutropenia was the dose-limiting toxicity for Compound 1 and easily managed. […] Biomarker modulation occurred at ≧500 mg/m^2. […] The recommended dose for Phase II was 500 mg/m^2. Furthermore the protocol was amended to increase the dose up to 750 mg/m^2 with prophylactic treatment with G-CSF.

For data set [3], the system named is patients with advanced/metastatic solid tumors. The data set is described as follows: Two-center phase I dose escalation trial, 6-hours IV infusion weekly for 3 consecutive weeks in a 28-day cycle. The data set is classed as in vivo. How it is done: The infusion duration was selected to reduce the potential for Cmax related toxicities. Forty patients were treated with doses ranging from 45 to 400 mg/m^2. […] In order to define the recommended dose for phase II, 330 mg/m^2 dose level was investigated.

For data set [4], the system named is histone H3 phosphorylation. The data set is described as follows: Histone H3 phosphorylation in skin biopsies of patients, phase I trial 24 hours infusion. It is filed as in vivo, human. The following applies: 24 h iv infusion. How it is done: as §1
(§2) Forty patients were enrolled. Seven DLs were explored (45, 90, 180, 360, 500, 650 and 580 mg/m^2). […] Except one G3 diarrhea, pyrexia and fatigue in one patient each, all other drug related non-hematological adverse events were G1 or 2 (fatigue, anorexia, nausea, vomiting, and ejection fraction decreased). One DLT (neutropenic infection) in the 360 mg/m^2, 2 DLTs (neutropenic infection and febrile neutropenia) at DL 650 mg/m^2 and 2 DLTs at 580 mg/m^2 (G 3 liver enzyme increase and febrile neutropenia) were reported. The MTD has been exceeded at 650 and 580 mg/m^2.

The target in the next data set is T2, Aurora kinases (AKs) C (Homo sapiens, UniProt Q9UQB9).
T2 sequence (Q9UQB9 1-309): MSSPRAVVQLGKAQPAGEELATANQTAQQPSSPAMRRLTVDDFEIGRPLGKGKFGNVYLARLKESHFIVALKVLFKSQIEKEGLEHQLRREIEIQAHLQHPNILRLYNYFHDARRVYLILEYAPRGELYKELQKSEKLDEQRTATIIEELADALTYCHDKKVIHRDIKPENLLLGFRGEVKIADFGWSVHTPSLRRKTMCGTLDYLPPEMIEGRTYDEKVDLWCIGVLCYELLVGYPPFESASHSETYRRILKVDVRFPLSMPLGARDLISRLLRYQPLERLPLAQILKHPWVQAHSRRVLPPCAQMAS
As to the kind of experiment: Inhibitory potency towards Aurora kinase C. The data set is classed as biochemical.

Data set [5] deals with patients with refractory or resistant solid tumours. The data set is described as follows: Phase I dose escalation trial, 24 hours iv infusion once every two weeks: toxicity and response. The data set is classed as in vivo. How it is done:
as §1
This was a dose escalation study. Cohorts of 3-6 patients were sequentially allotted to progressively higher dose levels (DL) of Compound 1 based on the number of dose limiting toxicities (DLTs) observed. As per protocol, definition of DLTs were grade (G) 4 neutropenia lasting >7 days, febrile neutropenia, neutropenic infection, any G3 or 4 non-hematological drug related toxicities during the first cycle of treatment.
as §2

Sequence of Aurora kinases (AKs) B (Q96GD4 whole entry): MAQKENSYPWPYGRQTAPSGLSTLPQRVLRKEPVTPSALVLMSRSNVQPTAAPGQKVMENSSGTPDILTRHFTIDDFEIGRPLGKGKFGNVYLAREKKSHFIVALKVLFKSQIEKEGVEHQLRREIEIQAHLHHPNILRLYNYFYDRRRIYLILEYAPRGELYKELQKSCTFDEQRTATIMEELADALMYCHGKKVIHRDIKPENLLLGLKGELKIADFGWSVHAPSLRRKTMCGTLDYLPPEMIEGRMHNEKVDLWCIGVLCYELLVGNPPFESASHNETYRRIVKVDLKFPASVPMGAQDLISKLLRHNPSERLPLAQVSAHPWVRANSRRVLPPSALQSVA

As for `CO[C@@H](C(=O)N1Cc2n[nH]c(NC(=O)c3ccc(N4CCN(C)CC4)cc3)c2C1)c1ccccc1` [Compound 1, N-{5-[(2R)-2-methoxy-2-phenylethanoyl]-1,4,5,6-tetrahydropyrrolo[3,4-c]pyrazol-3-yl}-4-(4-methylpiperazin-1-yl)benzamide], the tolerability of regimen entry in data set [1] is listed as “well tolerated”. Moreover, the “inhibitory potency towards Aurora kinase B” value on Aurora kinases (AKs) B is on record as “significant inhibitory potency”. Besides, the “inhibitory potency towards Aurora kinase A” value against Aurora kinases (AKs) A was “significant inhibitory potency”. The clearance – broadly, the rate of elimination divided by the concentration – in data set [2] (human, in vivo) fell in the range of 5 to 7.5 mL/min/kg. Moreover, in data set [2] (human, in vivo, read-out: terminal half-life), the half-life (commonly the time needed for the level to fall by half in the phase considered) lay within 18 to 30 h. In addition, in data set [2], the pharmacokinetic behavior entry was “dose-proportional and time-independent behavior”; the “pharmacokinetic linearity and variability” value was “linear with low inter-individual variability”; the volume of distribution is 2-4 times total body water. In data set [3] (250 mg/m^2), the “uncomplicated grade 3 neutropenia” value is “frequently reported”. For the same molecule, the drug-related deaths result in data set [3] (45 to 400 mg/m^2) is on record as “No drug-related deaths”. In addition, the hematological toxicity reported result in data set [3] (45 to 400 mg/m^2, 6-hours IV infusion days 1, 8, 15 every 28 days) is reported as “Uncomplicated neutropenia of short duration”. In addition, the “drug-related non hematological toxicities, severity” value in data set [3] (G1/G2 diarrhea, nausea, vomiting, fatigue, anorexia and blood pressure increase) is listed as “mild or moderate”. For the same molecule, the “number of patients with stable disease as best response” value in data set [3] (forty patients treated) was “Seven”. Also, the “number of stable-disease patients with response lasting more than seven months” value in data set [3] (of the seven patients with stable disease) was “four”. The “dose at which inhibition of histone H3 phosphorylation (biomarker modulation) was evident” value in data set [4] is no less than 500 mg/m^2. The “inhibitory potency towards Aurora kinase C” value against Aurora kinases (AKs) C was “significant inhibitory potency”. Moreover, in data set [5] (24 h iv infusion every two weeks), the “MTD (exceeded at 650 and 580 mg/m^2)” value is less than 580 mg/m^2. Besides, the “number of pts with stable disease as best response” value in data set [5] (forty patients enrolled) is reported as “Nine”. Moreover, in data set [5] (human, in vivo, iv), the “recommended dose for Phase II” value stood at 500 mg/m^2. For the same molecule, in data set [5] (in vivo, iv), the dose-limiting toxicity result was “Neutropenia” and the “non-hematological drug related adverse events, severity” value is on record as “mild or moderate”. For the same molecule, the “number of stable-disease pts with response duration >6 months” value in data set [5] (of the nine pts with stable disease) came out at 3.
